These results are taken from patent US20230257385A1, “SALT AND SOLID FORMS OF TABERNANTHALOG” (priority 2021, published 2023).

Series [1] in a line: Dynamic vapour sorption (DVS) of selected salts (Example 8). The class given is physicochemical. To be noted: 0 to 90 to 0% RH, 25° C., dm/dt 0.002%/min. A digest of the protocol:
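Sorption/desorption isotherms on 20–50 mg sample at 25°C after 60 min at 0% RH: 5% steps to 30%, 10% steps to 90%, then reverse. Equilibrium criterion dm/dt 0.002%/min; kinetic and isotherm curves derived.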

A short description of series [2]: Solubility determinations in SIF buffers FaSSIF, FeSSIF, FaSSGF (Example 8, Experiment 5). To be noted: 37 °C, thermodynamic from solid. In short, it runs like this: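 Suspensions in FaSSIF, FeSSIF or FaSSGF held at 37° C for 24 h, sampled at set time points and centrifuged. Pellets checked by XRPD, wet and dried, for form change.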
The nature of series [3]: DVS analyses of the monofumarate salt (Example 5, Experiment Reference 4). Conditions: mass equilibrated, 0 to 90% to 0% RH, 25° C. The class given is physicochemical. As to the method: (§1) The moisture sorption properties of the feed API were analyzed by DVS Intrinsic instrument (Surface Measurement System). Approximately 20 to 50 mg of API was weighed onto an aluminum pan and loaded into the instrument equilibrated at 25° C. The sample was equilibrated under a dry atmosphere (0% relative humidity) for 60 minutes, before increasing the humidity from 0% to 30% at 5% step increment and from 30% to 90% at 10% step increment. A desorption cycle was also applied from 90% to 30% (10% step decrement) and from 30% to 0% (5% step decrement). A rate of change in mass per time unit (dm/dt) of 0.002%/min was set as the equilibrium parameter. Kinetic and isotherm graphs were calculated.
as §1, with “feed API (active pharmaceutical ingredient) were analyzed” for “feed API were analyzed”, “step decrement). […] Kinetic and” for “step decrement). A rate of change in mass per time unit (dm/dt) of 0.002%/min was set as the equilibrium parameter. Kinetic and”, “were calculated. […]” for “were calculated.”

The nature of series [4]: Equilibrium humidity evaluation 75% RH/40° C., 10 days (Example 8, Experiment 6). The class given is physicochemical. To be noted: 75% RH/40° C. A digest of the protocol:
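Tabernanthalog salt powders (100 mg) were spread evenly in open vials and held at 40 °C and 75% RH. Sub-samples taken at 5 and 10 days were analysed by ^1H NMR, HPLC, XRPD, DSC, TGA and PLM for phase change, chemical degradation and residual solvent.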

The nature of series [5]: Heat-up/cool-down crystallisation screen of sorbate salt (Example 10, Experiments 5, 8). The class given is physicochemical. Conditions: Experiment 8; repeat of HUCD crystallisations aiming at Pattern #1 (water) and Pattern #6 (heptane/ethyl formate); wet pellet. As to the method:
The relevant solvent (0.225 ml, 3.0 vol) was added to the appropriate vial and the suspensions were stirred and warmed to temperature. If dissolution was not observed, further solvent was added until the solute dissolved, or aliquots of a secondary co-solvent were added to complete dissolution. Once dissolved, the solutions were left to cool down and stand undisturbed under sub-ambient conditions for several days. After crystallisation was judged complete, the products were isolated by centrifugation and the pellets were dried at 40° C. under reduced pressure. Products from the crystallisation (wet and dry) were initially analysed by XRPD (9-minute method), further analyses of certain products were performed by ^1H NMR, DSC and TGA, if the diffraction pattern indicated differences.

Assay in series [6]: as above
Conditions: Experiment 8; repeat of HUCD crystallisations; dried ca. 2 h under N2 flux at ambient temperature. It is filed as physicochemical.

The nature of series [7]: Calibration curve of non-ionized Tabernanthalog / HPLC sample diluent selection. Conditions: acetonitrile/water. The class given is physicochemical. The source says:
Separate portions of Tabernanthalog (native) were weighed out into aluminum boats and were charged to the relevant volumetric flasks. […] Peak areas of the calibrants were plotted against concentration to generate the corresponding calibration curve with slope 27622 and R^2 0.9917 (FIG. 437).
It is noted that tabernanthalog is insoluble in typical HPLC sample diluents, acetonitrile/water. Therefore, DMSO and water were investigated as sample diluents.
Thus, DMSO/water (1/1, v/v) was selected as the appropriate diluent composition to perform the study and generate the calibration curve, for the SIF panel solubility.

For series [8] the following is noted: reported by Dong et al., Olson et al., Cameron et al.; cited from earlier work.
The next series has as its target 5-HT2A (Homo sapiens, UniProt P28223). To be noted: reported by Dong et al., Olson et al., Cameron et al.; cited from earlier work.

Chain of 5-HT2A (P28223 whole entry): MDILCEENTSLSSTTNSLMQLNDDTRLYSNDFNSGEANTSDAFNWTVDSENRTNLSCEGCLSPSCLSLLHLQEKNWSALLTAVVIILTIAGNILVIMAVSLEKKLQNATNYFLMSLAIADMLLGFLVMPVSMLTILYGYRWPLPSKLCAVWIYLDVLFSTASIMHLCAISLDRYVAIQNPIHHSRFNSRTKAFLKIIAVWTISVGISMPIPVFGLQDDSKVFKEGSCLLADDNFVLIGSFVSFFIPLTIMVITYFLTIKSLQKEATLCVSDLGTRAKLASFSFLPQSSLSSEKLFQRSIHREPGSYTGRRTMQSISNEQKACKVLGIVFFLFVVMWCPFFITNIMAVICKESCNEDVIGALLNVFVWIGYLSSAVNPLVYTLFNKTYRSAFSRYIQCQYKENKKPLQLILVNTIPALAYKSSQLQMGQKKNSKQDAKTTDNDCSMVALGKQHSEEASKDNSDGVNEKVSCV

Take `COc1ccc2c3c([nH]c2c1)CCN(C)CC3.O=C(O)/C=C/C(=O)O` [8-Methoxy-3-methyl-2,4,5,6-tetrahydro-1H-azepino[4,5-b]indole fumarate salt (polymorph Form A)]: the DVS sorption/desorption isotherm result in [1] is recorded as “hygroscopic isotherm, with negligible hysteresis”. The solubility at 24 h in series [2] (pH 1.6, fassgf or other biorelevant) was over 30 mg/mL; in series [2] (pH 5, fessif), over 30 mg/mL; in [2] (pH 6.5, fassif) it was over 30 mg/mL. Besides, the DVS isotherm entry in [3] is “hygroscopic isotherm with negligible hysteresis”. The “change in chemical purity (trended HPLC)” value in series [4] (after 10 days) is recorded as “slight decrease in chemical purity”. Also, the “water uptake / hydrate formation (TGA, DSC)” value in series [4] (t=5 d and t=10 d) was “no significant water uptake”. In [4] (t=5 days and t=10 days), the “powder diffraction pattern versus input (form stability)” value was “resembled the input phase”.

With `CC=CC=CC(=O)O.COc1ccc2c3c([nH]c2c1)CCN(C)CC3` [Experiment 8-Sample B], the “XRPD (centrifuged, wet)” value in series [5] is “Form A”. In series [6], the “XRPD (under nitrogen flow)” value was “Form A”.

Regarding `COc1ccc2c3c([nH]c2c1)CCN(C)CC3` [tabernanthalog, 8-methoxy-3-methyl-1,2,3,4,5,6-hexahydroazepino[4,5-b]indole], the “solubility in typical HPLC sample diluents” value in series [7] was “insoluble”. Further, the hallucinogenic effect result in series [8] is “non-hallucinogenic”. The 5-HT2A activity result on 5-HT2A is “have 5-HT2A activity”.

Broadly, the solubility is the concentration that dissolves in the medium under given conditions. A low value points to little dissolved substance.
